From patent US20240238323A1, “MODIFIED NUCLEOSIDES AND NUCLEOTIDES ANALOGS AS ANTIVIRAL AGENTS FOR CORONA AND OTHER VIRUSES” (Emory University, priority 2021, published 2024)
Like-named read-outs stand apart in the source and are kept apart here.

Assays:
[1] = system: SARS-CoV-2; test: microbe, parasite or virus in culture; type: cell-based; settings: for EC50: read-out: Anti-SARS-COV-2 activity in Vero cells EC50; for EC90: read-out: Anti-SARS-COV-2 activity in Vero cells EC90
[2] = target: SARS-CoV-2 RdRp complex (nsp12-nsp7-nsp8) (Severe acute respiratory syndrome coronavirus 2, UniProt P0DTD1); type: biochemical
[3] = Severe acute respiratory syndrome coronavirus 2, Vero, 48 h
[4] = Severe acute respiratory syndrome coronavirus 2, Vero, 48 h, Vero cells, virus yield, 48 h post-infection
[5] = Severe acute respiratory syndrome coronavirus 2, Vero cells, virus yield, 48 h post-infection

Compound | EC50 [1, 4] [µM] | further results
CC(C)OC(=O)[C@H](C)N[P@](=O)(OC[C@H]1O[C@@H](n2ncc(=O)[nH]c2=O)C(O)C1O)Oc1ccccc1 (stereo partly drawn) | – | EC50 [1, 3]: < 10 µM
Nc1cnn([C@@H]2O[C@H](CO)C(O)C2O)c(=O)n1 (stereo partly drawn) | < 10 | –
COc1cnn([C@@H]2O[C@H](CO)C(O)C2O)c(=O)n1 (stereo partly drawn) | < 10 | –
CC(C)OC(=O)[C@H](C)N[P@](=O)(OC[C@H]1O[C@@H](n2ncc(=O)[nH]c2=O)[C@](C)(O)C1O)Oc1ccccc1 (stereo partly drawn) | – | EC50 [1, 3]: 10 µM
Nc1nccc2c1ncn2[C@@H]1O[C@H](CO)C(O)C1O (stereo partly drawn) | 6 | EC90 [1, 5]: 15.2 µM
OC[C@H]1O[C@@H](n2cnc3c(S)ncnc32)C(O)C1O (stereo partly drawn) | 11.1 | EC90 [1, 5]: 23.5 µM
CC1(O)C(O)[C@@H](CO)O[C@H]1n1ccc(N)nc1=O (stereo partly drawn) | 9.2 | EC90 [1, 5]: 29.6 µM
CC1(O)C(O)[C@@H](CO)O[C@H]1n1cc(F)c2c(N)ncnc21 (stereo partly drawn) | 7.6 | EC90 [1, 5]: 28.8 µM
CC(C)OC(=O)[C@H](C)NP(=O)(OC[C@H]1O[C@@H](n2cnc3c(N)ncnc32)C(C)(O)C1O)Oc1ccccc1 (stereo partly drawn) | – | EC50 [1, 3]: < 10 µM
COc1ncnc2c1c(C(F)(F)F)cn2[C@@H]1O[C@H](CO)C(O)C1(C)O (stereo partly drawn) | < 10 | –
CC1(F)C[C@@H](CO)O[C@H]1n1ccc(=O)[nH]c1=O (stereo partly drawn) | 10 | –
[N-]=[N+]=NC1C(O)[C@@H](CO)O[C@H]1n1ccc(=O)[nH]c1=O (stereo partly drawn) | < 10 | –
CC(C)OC(=O)[C@H](C)N[P@@](=O)(OC[C@H]1O[C@@H](n2ccc(=O)[nH]c2=O)C(F)C1O)Oc1ccccc1 (stereo partly drawn) | – | EC50 [1, 3]: < 10 µM
C#CC1C(O)[C@@H](CO)O[C@H]1n1cc(F)c(=O)[nH]c1=O (stereo partly drawn) | < 10 | –
[N-]=[N+]=NC1C[C@@H](COC(=O)c2ccccc2)O[C@H]1n1ccc(=O)[nH]c1=O (stereo partly drawn) | 10 | –
O=c1ccn([C@@H]2O[C@H](CO)CC2F)c(=O)[nH]1 (stereo partly drawn) | < 10 | –
NC1C=CN([C@@H]2O[C@H](CO)CC2(Cl)Cl)C(=O)N1 (stereo partly drawn) | < 10 | –
Nc1ccn([C@@H]2O[C@@](CO)(COC(F)F)[C@@H](O)[C@H]2F)c(=O)n1 | < 10 | –
Nc1ccn([C@@H]2O[C@@](CO)(C3CCO3)C(O)C2F)c(=O)n1 (stereo partly drawn) | < 10 | –
C#C[C@]1(CO)O[C@@H](n2cnc3c(N)ncnc32)C(O)C1O (stereo partly drawn) | < 10 | –

Compound | EC50 [1, 4] [µM] | further results
C#C[C@]1(CO)O[C@@H](N2C=CC(N)NC2=O)[C@H](O)[C@@H]1O (stereo partly drawn) | < 10 | –
C#C[C@]1(CO[P@@](=O)(N[C@@H](C)C(=O)OC(C)C)Oc2ccccc2)O[C@@H](n2ccc(=O)[nH]c2=O)[C@H](O)[C@@H]1O | – | EC50 [1, 3]: < 10 µM
O=c1ccn([C@@H]2C[C@H](CO)C(O)C2O)c(=O)[nH]1 (stereo partly drawn) | < 10 | –
Nc1nc2c(ncn2[C@@H]2C[C@H](CO)C(O)C2O)c(=O)[nH]1 (stereo partly drawn) | < 10 | –
Nc1ncnc2c1ccn2[C@@H]1C[C@H](CO)C(O)C1O (stereo partly drawn) | < 10 | –
Nc1ncnc2c1ncn2[C@@H]1C[C@H](CO)C(O)C1O (stereo partly drawn) | < 10 | –
CC(C)OC(=O)[C@H](C)NP(=O)(OC[C@H]1C[C@@H](n2cnc3c(N)ncnc32)C(O)C1O)Oc1ccccc1 (stereo partly drawn) | – | EC50 [1, 3]: < 10 µM
CC(C)C(=O)OC[C@@H]1OC[C@H](n2cnc3c(Cl)nc(Cl)nc32)O1 | 2.3 | EC90 [1, 5]: 6.5 µM
COc1nc(Cl)nc2c1ncn2[C@H]1CO[C@@H](CO)O1 | < 10 | –
Nc1nc2c(ncn2[C@H]2CO[C@@H](CO)O2)c(=O)[nH]1 | – | EC50 [1, 3]: > 10 µM
Nc1nc(N)c2ncn([C@H]3CO[C@@H](CO)O3)c2n1 | 10 | –
CCOC(=O)[C@H](C)NP(=O)(OC[C@@H]1OC[C@H](n2cnc3c(OC)nc(N)nc32)O1)Oc1ccccc1 (stereo partly drawn) | – | EC50 [1, 3]: > 10 µM
Nc1nc(Cl)nc2c1ncn2[C@H]1CO[C@@H](CO)O1 | > 10 | –
OC[C@@H]1OC[C@H](n2cnc3c(Cl)nc(Cl)nc32)O1 | < 10 | –
CC(C)OC(=O)[C@H](C)N[P@](=O)(OC[C@@H]1OC[C@H](n2cnc3c(Cl)nc(Cl)nc32)O1)Oc1ccccc1 | – | EC50 [1, 3]: > 10 µM
OC[C@@H]1CC[C@H](n2cnc3c(Cl)nc(Cl)nc32)C1 | < 10 | –
OC[C@@H]1C=C[C@H](n2cnc3c(Cl)nc(Cl)nc32)C1 | < 10 | –
CC(C)OC(=O)[C@H](C)NP(=O)(OC[C@@H]1C=C[C@H](n2cnc3c(Cl)nc(Cl)nc32)C1)Oc1ccccc1 (stereo partly drawn) | – | EC50 [1, 3]: < 10 µM
CC(C)OC(=O)[C@H](C)NP(=O)(OC[C@@H]1CC[C@H](n2cnc3c(Cl)nc(Cl)nc32)C1)Oc1ccccc1 (stereo partly drawn) | – | EC50 [1, 3]: < 10 µM
Nc1ncnc2c([C@H]3O[C@@H](CO)C(O)C3O)cnn12 (stereo partly drawn) | < 10 | –

Compound | EC50 [1, 4] [µM] | further results
Nc1ncnc2c([C@@H]3C[C@H](CO)C(O)C3O)c[nH]c12 (stereo partly drawn) | < 10 | –
OC[C@H]1C[C@@H](c2c[nH]c3c(O)ncnc23)C(O)C1O (stereo partly drawn) | < 10 | –
O=c1[nH]c(=O)n([C@H]2C[C@@H](CO)C(O)C2O)cc1F (stereo partly drawn) | < 10 | –
Nc1nc(O)c2[nH]cc([C@@H]3C[C@H](CO)C(O)C3O)c2n1 (stereo partly drawn) | < 10 | –
OC[C@@H]1O[C@H](n2nnc3c(O)ncnc32)C(O)C1O (stereo partly drawn) | < 10 | –
Nc1ncnc2c1cnn2[C@H]1O[C@@H](CO)C(O)C1O (stereo partly drawn) | < 10 | –
OC[C@@H]1O[C@H](n2ncc3c(S)ncnc32)C(O)C1O (stereo partly drawn) | < 10 | –
O=c1ccn([C@H]2CC(F)(F)[C@@H](CO)S2)c(=O)[nH]1 | < 10 | –
CC1(O)C(O)[C@H](n2ccc(NO)nc2=O)S[C@@H]1CO (stereo partly drawn) | 1.2 | EC90 [1, 5]: 8.7 µM
CC(C)OC(=O)[C@H](C)NP(=O)(OC[C@H]1O[C@@H](n2ccc(N)nc2=O)C(O)C1(C)O)Oc1ccccc1 (stereo partly drawn) | – | EC50 [1, 3]: 9.3 µM; EC90 [1, 3]: > 10 µM
CC1(O)C(O)[C@H](n2ccc(N)nc2=O)O[C@@H]1CO (stereo partly drawn) | 0.4 | EC90 [1, 5]: 3.6 µM
O=c1nc(NO)ccn1C1CCC(CO)O1 (stereo not drawn) | 2.5 | EC90 [1, 5]: 83.4 µM
O=c1ccn([C@H]2CC[C@@H](CO)O2)c(=O)[nH]1 | 10 | –
Nc1ccn([C@H]2CC[C@@H](CO)O2)c(=O)n1 | < 10 | –
O=c1cnn([C@@H]2O[C@H](CO)C(O)C2O)c(=O)[nH]1 (stereo partly drawn) [drawing 46] | 0.75 | EC90 [1, 5]: 2.5 µM
C[C@@]1(O)C(O)[C@@H](CO)O[C@H]1n1ncc(=O)[nH]c1=O (stereo partly drawn) [drawing 50] | 10 | –
C[C@@]1(O)C(O)[C@@H](CO)O[C@H]1n1ncc(=O)[nH]c1=O (stereo partly drawn) [drawing 58] | – | EC50 ([1]; Vero cells, virus yield, 48 h post-infection): < 10 µM
O=c1cnn([C@@H]2O[C@H](CO)C(O)C2O)c(=O)[nH]1 (stereo partly drawn) [drawing 105] | – | inhibition of RNA synthesis by RdRp complex ([2]; concentrations of 1, 10 and 100 μM): not significantly inhibited; inhibition of RNA synthesis by RdRp complex ([2]; concentrations of 250 and 500 μM): significant inhibition
